Experimental data: article PMC3798429, “Exploring the Trypanosoma brucei Hsp83 Potential as a Target for Structure Guided Drug Design” (PLoS Neglected Tropical Diseases, 2013)
Where “and” joins values, the source holds several entries; their conditions need not be identical. Equal values may be shown once. Read-outs that look alike come from different tables or passages of the source. Marks after values point to notes of the source that are not given here.

Columns and labels:
[1] = target: T1, TbHsp83 NTD (Trypanosoma brucei brucei, UniProt P12861); type: binding; details: TbHsp83 NTD, inhibitor 25 µM, shifts above 2°C considered significant
Description: (§1) DSF screening was carried out using a LightCycler 480 Real Time PCR System (Roche Applied Science, Quebec, Canada). The NTDs from TbHsp83 as well as human Hsp90s α and β were buffered in 100 mM hepes pH 7.5, 150 mM NaCl and assayed in a 384-well format. The final concentration of the protein sample was optimized between 0.05 and 0.2 mg/ml for each NTD (concentration selected based on pre-testing results to avoid saturation of the fluorescence detector). […] The recorded fluorescence reads were fitted to the Boltzmann sigmoid function using Bioactive software (Harbinger Biotechnology and Engineering Corp., Ontario, Canada). The inflection point of each fitted curve is defined as the melting temperature (T m). […] Thermal shifts above 2°C were considered significant.

[2] = target: T1, TbHsp83 NTD; experiment: biochemical; type: binding
[3] = test system: T. brucei 427; experiment: Parasite growth inhibition assay; type: cell-based; details: Trypanosoma brucei
Description: Assay conditions for T. brucei 427 cell based assay were followed as previously reported in the literature.
Several of the compounds characterized using DSF and ITC assays were evaluated for their ability to kill T. brucei in a continuous in vitro culture system.

[4] = test system: T2, Human Hsp90β; experiment: Differential scanning fluorimetry (DSF) thermal shift, human Hsp90β NTD; type: binding; details: inhibitor 25 µM
T2 construct: The NTDs from TbHsp83 as well as human Hsp90s α and β
Description: as §1

[5] = target: Human TRAP-1; details: read-out: K d (previous ITC measurements); cited from earlier work
[6] = test system: T3, Human Hsp90α; experiment: Differential scanning fluorimetry (DSF) thermal shift, human Hsp90α NTD; type: binding; details: inhibitor 25 µM
T3 construct: The NTDs from TbHsp83 as well as human Hsp90s α and β
Description: as §1

[7] = test system: TbHsp83 NTD; type: binding; details: DSF comparison of TbHsp83, Hsp90α and Hsp90β
Description: as §1

[8] = target: T2, Human Hsp90β; details: read-out: K d (previous ITC measurements); cited from earlier work
[9] = test system: Trypanosoma brucei; parameters: method as in PMID 23630365; details: cited from earlier work
[10] = target: Yeast Hsp83; details: read-out: K d (previous ITC measurements); cited from earlier work
[11] = test system: Plasmodium; parameters: method as in PMID 12584193; details: cited from earlier work
[12] = blood stream stage T. brucei 427, in vitro culture, read-out: EC50
[13] = ITC, 20°C, TbHsp83 NTD, read-out: K d

T1 sequence (P12861 1-213): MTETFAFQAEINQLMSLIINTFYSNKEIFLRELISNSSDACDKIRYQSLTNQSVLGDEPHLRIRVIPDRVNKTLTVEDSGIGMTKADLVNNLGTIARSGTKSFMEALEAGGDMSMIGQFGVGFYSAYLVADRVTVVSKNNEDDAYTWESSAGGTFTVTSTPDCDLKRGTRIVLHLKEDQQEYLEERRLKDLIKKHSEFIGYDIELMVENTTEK

Compound | ΔT m [1] [°C] | ΔT m [4] | Kd [2, 13] | ΔT m [6] | other results
COc1c(C)cnc(Cn2cnc3c(Cl)nc(N)nc32)c1C [Compound 1, 6-chloro-9-(4-methoxy-3,-dimethylpyridin-2-ylmethyl)-9H-purin-2-ylamine] | 10.5 | 8.7 °C |  |  | Kd ([2]; K d, ITC, 20°C, TbHsp83 NTD): 0.009 µM; EC50 [3, 12]: 0.31 µM
AMPPSP |  |  |  |  | Kd [5]: 109 µM
Oc1cc(O)c(-c2noc3ccc(NCCN4CCOCC4)cc23)cc1Cl [CAY10607] | 13.3 | 12.1 °C | 0.01 µM | 15.3 °C | 
CC1(C)CC(=O)c2c(C(F)(F)F)nn(-c3ccc(C(N)=O)c(N[C@H]4CC[C@H](O)CC4)c3)c2C1 [Compound 4, 4-[6,6-dimethyl-4-oxo-3-(trifluoromethyl)-4,5,6,7-tetrahydro-1H-indazol-1-yl]-2-[(trans-4-hydroxycyclohexyl)amino]benzamide] | 15.5 |  | 0.003 µM |  | Kd ([2]; ITC, read-out: K d): 0.0028 µM; EC50 [3, 12]: 0.1 µM
CCNC(=O)c1noc(-c2cc(C(C)C)c(O)cc2O)c1-c1ccc(CN2CCOCC2)cc1 [NVP-AUY922] | 18.5 | 19.6 °C | 0.003 µM | 22.3 °C | binding preference TbHsp83 vs human Hsp90 [7]: stronger affinity for human Hsp90
CSCCNc1cc(-n2nc(C(F)(F)F)c3c2CC(C)(C)CC3=O)ccc1C(N)=O [Compound 5, 4-(6,6-dimethyl-4-oxo-3-(trifluoromethyl)-4,5,6,7-tetrahydro-1H-indazol-1-yl)-2-((2-(methylthio)ethyl)amino)benzamide] | 12.03 | 0.4 °C | 0.794 µM | 2.3 °C | binding preference TbHsp83 vs human Hsp90 [7]: preferentially binds TbHsp83; binding preference TbHsp83 vs human Hsp90 ([7]; listed as compound 5): markedly stronger binding to TbHsp83; EC50 [3, 12]: 0.13 µM
CCNC(=O)c1cc2c(-c3cc(OCCN(CC)CC)c(Cl)cc3Cl)nc(N)nc2s1 [Compound 3, 2-amino-4-[2,4-dichloro-5-(2-diethylaminoethoxy)phenyl]thiopheno[2,3-d]pyrimidine-6-carboxylic acid ethylamide] | 12.7 | 12.9 °C | 0.026 µM | 14.7 °C | EC50 [3]: 0.21 µM
CC(=O)c1ccc(N2C3CCC2CC(NC(=O)c2ccc(C(N)=O)c(NC4CCC(O)CC4)c2)C3)nc1 (stereo not drawn) [Compound 6, N4-[8-(5-acetylpyridin-2-yl)-8-azabicyclo[3.2.1]oct-3-endo-yl]-2-[(trans-4-hydroxycyclohexyl)amino]benzene-1,4-dicarboxamide] | 10.4 | 4.9 °C |  | 8.5 °C | EC50 [3, 12]: 0.22 µM
Nc1ncnc2c1ncn2[C@@H]1O[C@H](COP(=O)(O)OP(=O)(O)O)[C@@H](O)[C@H]1O [ADP] | 0.1 | 0.5^b °C |  | 0.3^a °C | Kd [5]: 35 µM; Kd [8]: 15 µM
C=CCNC1=C2C[C@@H](C)C[C@H](OC)[C@H](O)[C@@H](C)/C=C(\C)[C@H](OC(N)=O)[C@@H](OC)/C=C\C=C(/C)C(=O)NC(=CC1=O)C2=O [Compound 17-AAG-GA, 17-AAG-GA] | 10.7 | 1.6 °C |  | 3.1 °C | EC50 [9]: 0.038 µM
CO[C@H]1/C=C\C=C(/C)C(=O)NC2=CC(=O)C(NCCN(C)C)=C(C[C@@H](C)C[C@H](OC)[C@H](O)[C@@H](C)/C=C(\C)[C@@H]1OC(N)=O)C2=O [Compound 17-DAMG-GA, 17-DAMG-GA] | 11.7 | 3.9 °C |  | 5.5 °C | Kd [8]: 0.35 µM; EC50 [9]: 0.003 µM
CCC(C)n1c(Cc2cc(OC)ccc2OC)nc2c(N)nc(C)nc21 (stereo not shown) [Compound 2, 9-(sec-butyl)-8-(2,5-dimethoxybenzyl)-2-methyl-9H-purin-6-amine] | 0.8 | −0.5 °C | 9.3 µM and 9.26 µM | 1.2 °C | ΔT m ([1]; listed as compound 2): non-significant; K d ([2]; ITC, 20°C, TbHsp83 NTD): lowest affinity measured by ITC; EC50 [3, 12]: 13 µM
C[C@@H]1C[C@H]2O[C@@H]2/C=C\C=C\C(=O)Cc2c(Cl)c(O)cc(O)c2C(=O)O1 [Radicicol] | 6.5 | 15.6 °C |  | 18.8 °C | binding preference TbHsp83 vs human Hsp90 [7]: stronger affinity for human Hsp90; Kd [5]: 0.025 µM; EC50 [9]: 0.07 µM; Kd [10]: 0.016 µM
Nc1ncnc2c1ncn2[C@@H]1O[C@H](COP(=O)(O)OP(=O)(O)NP(=O)(O)O)[C@@H](O)[C@H]1O [AMPPNP] | 0.3 |  |  |  | Kd [8]: 141 µM; Kd [10]: 111 µM
CO[C@H]1[C@@H](OC)C[C@H](C)[C@@H](OC)C2=CC(=O)C=C(NC(=O)/C(C)=C/C=C\[C@H](C)[C@@H](OC(N)=O)/C(C)=C/[C@@H]1C)C2=O [Macbecin I] | 16.9 | 8.6 °C |  | 10.2 °C | binding preference TbHsp83 vs human Hsp90 [7]: markedly stronger binding to TbHsp83; fold higher affinity of T. brucei Hsp83 compared to K d reported for yeast counterpart ([2]; ITC K d vs yeast value of ref 45): 2.5 fold; Kd ([2]; K d, ITC, 20°C, TbHsp83 NTD): 0.093 µM; Kd [10]: 0.24 µM
COC1=C2C[C@@H](C)C[C@H](OC)[C@H](O)[C@@H](C)/C=C(\C)[C@H](OC(N)=O)[C@@H](OC)/C=C\C=C(/C)C(=O)NC(=CC1=O)C2=O [Geldanamycin] | 14.8 |  |  |  | Kd ([2]; K d, ITC, 20°C, TbHsp83 NTD): 1 µM; concentration inhibiting parasite growth [11]: sub-micromolar; EC50 [9]: 0.013 µM; Kd [10]: 2.9 µM
CO[C@H]1/C=C\C=C(/C)C(=O)NC2=CC(=O)C(NCCN3CCCC3)=C(C[C@@H](C)C[C@H](OC)[C@H](O)[C@@H](C)/C=C(\C)[C@@H]1OC(N)=O)C2=O [Compound 17-AEP-GA, 17-AEP-GA] | 13.8 | 4.2 °C | 0.714 µM | 5.1 °C | 
CCc1cc(-c2n[nH]c(C)c2-c2ccc3c(c2)OCCO3)c(O)cc1O [CCT018159] | 8.01 | 7.5 °C | 4.98 µM | 12.1 °C | 
